Values quoted from earlier work in patent publication EP3815682A1, “A PERK KINASE INHIBITOR FOR TREATING DISEASES ASSOCIATED WITH ENDOPLASMIC RETICULUM STRESS” (Uniwersytet Medyczny w Lodzi, priority 2019, dated 2021).

Columns and labels:
pancreatic cells [1] = system: pancreatic cells
[2] = not told
[3] = biological target: T1, PERK kinase and eIF2α protein phosphorylation (Homo sapiens, UniProt Q9NZJ5); conditions: Atkins et al.
T1 sequence (Q9NZJ5 30-1116): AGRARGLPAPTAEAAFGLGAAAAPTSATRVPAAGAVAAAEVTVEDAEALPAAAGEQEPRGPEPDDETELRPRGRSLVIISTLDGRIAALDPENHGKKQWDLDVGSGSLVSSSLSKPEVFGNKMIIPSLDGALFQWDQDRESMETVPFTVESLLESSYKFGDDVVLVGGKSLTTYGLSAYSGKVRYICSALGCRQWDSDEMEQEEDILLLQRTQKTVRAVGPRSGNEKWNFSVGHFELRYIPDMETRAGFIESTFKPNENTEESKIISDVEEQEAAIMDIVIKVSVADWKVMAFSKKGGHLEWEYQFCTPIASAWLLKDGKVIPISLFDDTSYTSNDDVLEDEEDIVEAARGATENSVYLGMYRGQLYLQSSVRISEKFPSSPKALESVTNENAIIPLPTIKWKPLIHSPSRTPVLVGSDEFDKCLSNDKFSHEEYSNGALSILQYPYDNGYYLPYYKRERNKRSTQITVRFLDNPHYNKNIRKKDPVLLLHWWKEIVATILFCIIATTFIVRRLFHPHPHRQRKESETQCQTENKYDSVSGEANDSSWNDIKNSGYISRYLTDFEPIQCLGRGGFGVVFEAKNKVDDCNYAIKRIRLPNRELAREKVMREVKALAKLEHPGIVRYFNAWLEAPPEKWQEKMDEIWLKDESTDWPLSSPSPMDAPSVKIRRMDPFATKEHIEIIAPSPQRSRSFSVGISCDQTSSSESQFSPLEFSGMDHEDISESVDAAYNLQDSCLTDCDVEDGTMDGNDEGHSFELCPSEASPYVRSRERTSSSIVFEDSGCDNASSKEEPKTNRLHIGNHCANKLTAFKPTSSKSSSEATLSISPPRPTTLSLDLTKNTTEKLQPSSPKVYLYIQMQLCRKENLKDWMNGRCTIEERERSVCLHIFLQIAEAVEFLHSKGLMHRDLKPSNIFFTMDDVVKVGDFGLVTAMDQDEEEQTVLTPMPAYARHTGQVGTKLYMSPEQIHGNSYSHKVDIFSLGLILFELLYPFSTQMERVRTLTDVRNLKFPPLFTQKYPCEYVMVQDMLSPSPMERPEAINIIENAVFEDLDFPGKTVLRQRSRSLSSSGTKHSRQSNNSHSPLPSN

pancreatic cells [4] = conditions: reason for not entering clinical trials
[5] = animals administered the inhibitor

For `Cn1cc(-c2ccc3c(c2)CCN3C(=O)Cc2cccc(C(F)(F)F)c2)c2c(N)ncnc21` [GSK2606414], the “level of phosphorylated forms of PERK and eIF2α” value (PERK and eIF2α; compared with mice not administered the inhibitor) is given as “substantially lower”, the “protein synthesis in cells” value (PERK and eIF2α; mouse, in vivo) is given as “temporary restoration of protein synthesis” and the glycemia (pancreatic cells [1]; [5]) is given as “hyperglycemia”. For the same compound, the weight (pancreatic cells [1]; [5]) was “significant weight loss” and the “effect on pancreatic cells” value (pancreatic cells [1]; mice) was “cytotoxic effect”.
In the case of `O=C(COc1ccc(Cl)cc1)NC1CCC(NC(=O)COc2ccc(Cl)cc2)CC1` (stereo not shown) [ISRIB], the “permeability of the blood-brain barrier” value [2] is listed as “good permeability”.
For `O=C(/C=C/c1ccccc1)NC(NC(=S)Nc1cccc2cccnc12)C(Cl)(Cl)Cl` (stereo not shown) [Salubrinal], the survival (eIF2α phosphorylation; compared with animals that did not receive the compound) is listed as “died quicker” and the eIF2α phosphorylation (eIF2α phosphorylation; mouse, in vivo) is listed as “increase”.
For `Cc1cccc(CC(=O)N2CCc3c2ccc(-c2cn(C)c4ncnc(N)c24)c3F)n1` [GSK2656157], the “inhibition of PERK kinase and eIF2α protein phosphorylation” value [3] is listed as “effective inhibition” and the “activity on pancreatic cells” value (pancreatic cells [4]) is listed as “non-selective activity also on pancreatic cells”.
